Laboratory results: patent US7514454B2, “Piperidin-2,6-dione pamoate salts and their use for the treatment of stress-related affective disorders” (Prestwick Pharmaceuticals, Inc., priority 2002, dated 2009)

Legend:
[1] = rats, 200 mg/kg/day p.o., cited from earlier work
[2] = about 4 mg/kg/day (200-400 mg/day for human patients); cited from earlier work
[3] = 1 mg b.i.d. (about 30 μg/kg/day), FDA permitted dose levels; cited from earlier work
tryptophan hydroxylase = assay: blockade of tryptophan hydroxylase activation; assay type: biochemical; conditions: activation by metabolic inhibitors such as guanidine and sodium cyanide

Row | Structure (SMILES) | hepatocyte changes revealed by post-mortem examination ([1]; 1 year, not detected by routine transaminase determinations) | weight loss ([1]; over the 1-year period, immediate and continuing) [%] | effectiveness in the treatment of anxiety and depression [2] | anxiolytic properties [3] | blockade of tryptophan hydroxylase activation (tryptophan hydroxylase)
1 | COc1cccc(C2(CCCN(C)C)C(=O)NC(=O)CC2(C)C)c1.Cl (centres unmarked) [hydrochloride salt of AGN 2979] | hepatocyte changes | 40 | effective | only marginally effective | 
2 | COc1cccc(C2(CCCN(C)C)C(=O)NC(=O)CC2(C)C)c1 (centres unmarked) [AGN 2979 pamoate, 3(3-methoxyphenyl)-3-(3-dimethylaminopropyl)-4,4-dimethyl-piperidine-2,6-dione pamoate] |  |  |  |  | blocked
